Test results reported in ChEMBL document CHEMBL1154582, “Thonningianins A and B, new antioxidants from the African medicinal herb Thonningia sanguinea” (J Nat Prod, 2000).
The source made the active and inactive calls. The rule behind the calls is not given here.

Columns and labels:
Type in all cases: functional
[1] = DPPH radical scavenging activity at 25 uM by ESR spectra
[2] = DPPH radical scavenging activity by ESR spectra
[3] = DPPH radical scavenging activity at 34.5 uM by ESR spectra

| IC50 [2] [µM] | SMILES | Activity [1] | Activity [3] [%] |
| --- | --- | --- | --- |
| 8 | O=C(O[C@@H]1[C@@H](O)[C@H](Oc2cc(O)c(C(=O)CCc3ccccc3)c(O)c2)O[C@@H]2COC(=O)c3cc(O)c(O)c(O)c3-c3c(cc(O)c(O)c3O)C(=O)O[C@@H]12)c1cc(O)c(O)c(O)c1 [THONNINGIANIN A] | Active | – |
| 21 | O=C1OC[C@H]2O[C@@H](Oc3cc(O)c(C(=O)CCc4ccccc4)c(O)c3)[C@H](O)[C@@H](O)[C@@H]2OC(=O)c2cc(O)c(O)c(O)c2-c2c1cc(O)c(O)c2O [THONNINGIANIN B] | – | 90 |
